The results in this text go back to patent publication US11753395B2 (Kinnate Biopharma Inc., priority 2021, dated 2023).

The target in one assay is T1, MET (Homo sapiens, UniProt P08581).
T1 construct: purchased Carna Biosciences 08-151
Description: MET Mobility Shift Assay. To be noted: biochemical assay IC50; 100 μM ATP, 60 minute kinase reaction. In outline:
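IC50s come from inhibition of substrate-to-phosphopeptide conversion, read by electrophoretic mobility shift. Reaction: 100 μM ATP, 1.5 μM 5-FAM peptide, 0.625 nM MET, 10 mM MgCl2, 60 min, after a 30 min room-temperature enzyme pre-incubation, quenched with EDTA.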

A further assay has as its target T2, MET D1228N (Homo sapiens, UniProt P08581, D1228N).
T2 construct: purchased Signalchem M52-12IG
The experiment in a line: MET D1228N Mobility Shift Assay. The note with it: biochemical assay IC50; 100 μM ATP, 60 minute kinase reaction. In outline:
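Microfluidic electrophoresis quantified phosphorylated versus unphosphorylated 5-FAM-KKKKEEIYFFF peptide (1.5 μM) after a 60 min reaction with 100 μM ATP. MET D1228N (0.313 nM) in 50 mM HEPES, 10 mM MgCl2, 2 mM DTT was preincubated 30 min; IC50 fitted to conversion inhibition.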

The target in a further assay is T3, Ba/F3-TPR-MET cells (Homo sapiens, UniProt P08581).
T3 construct: fused on or other part: P12270 (Nucleoprotein TPR)
The experiment in a line: CellTiter-Glo Cell Viability Assay, Ba/F3-TPR-MET. The class given is cell-based. To be noted: 72 hours. In outline:
(§1)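 IC50 values come from curve-fitted luminescence. Viable-cell ATP was read by CellTiter-Glo 2.0 after a 72 h, 37 °C incubation of 3000 TPR-MET or D1228N-mutant Ba/F3 cells per well. Compounds were tested as a 9-point, 3-fold series with 0.1% DMSO final.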
In general terms: In ATP-based viability assays light output follows the ATP content of the culture.

For assay [1], the target named is T4, Ba/F3-TPR-MET-D1228N cells (Homo sapiens, UniProt P08581, D1228N, cells depend on it).
T4 construct: fused on or other part: P12270 (Nucleoprotein TPR)
The experiment in a line: CellTiter-Glo Cell Viability Assay, Ba/F3-TPR-MET-D1228N. The class given is cell-based. To be noted: 72 hours. In outline:
as §1

As usually defined, the IC50 is the point on the concentration scale where inhibition reaches its midpoint. For orientation: EC50 means the midpoint of the concentration-response curve. A high value points to a less potent agent.

A value given as a limit tells only on which side of the number the result lay.

T2 sequence (P08581 25-1390 D1228N): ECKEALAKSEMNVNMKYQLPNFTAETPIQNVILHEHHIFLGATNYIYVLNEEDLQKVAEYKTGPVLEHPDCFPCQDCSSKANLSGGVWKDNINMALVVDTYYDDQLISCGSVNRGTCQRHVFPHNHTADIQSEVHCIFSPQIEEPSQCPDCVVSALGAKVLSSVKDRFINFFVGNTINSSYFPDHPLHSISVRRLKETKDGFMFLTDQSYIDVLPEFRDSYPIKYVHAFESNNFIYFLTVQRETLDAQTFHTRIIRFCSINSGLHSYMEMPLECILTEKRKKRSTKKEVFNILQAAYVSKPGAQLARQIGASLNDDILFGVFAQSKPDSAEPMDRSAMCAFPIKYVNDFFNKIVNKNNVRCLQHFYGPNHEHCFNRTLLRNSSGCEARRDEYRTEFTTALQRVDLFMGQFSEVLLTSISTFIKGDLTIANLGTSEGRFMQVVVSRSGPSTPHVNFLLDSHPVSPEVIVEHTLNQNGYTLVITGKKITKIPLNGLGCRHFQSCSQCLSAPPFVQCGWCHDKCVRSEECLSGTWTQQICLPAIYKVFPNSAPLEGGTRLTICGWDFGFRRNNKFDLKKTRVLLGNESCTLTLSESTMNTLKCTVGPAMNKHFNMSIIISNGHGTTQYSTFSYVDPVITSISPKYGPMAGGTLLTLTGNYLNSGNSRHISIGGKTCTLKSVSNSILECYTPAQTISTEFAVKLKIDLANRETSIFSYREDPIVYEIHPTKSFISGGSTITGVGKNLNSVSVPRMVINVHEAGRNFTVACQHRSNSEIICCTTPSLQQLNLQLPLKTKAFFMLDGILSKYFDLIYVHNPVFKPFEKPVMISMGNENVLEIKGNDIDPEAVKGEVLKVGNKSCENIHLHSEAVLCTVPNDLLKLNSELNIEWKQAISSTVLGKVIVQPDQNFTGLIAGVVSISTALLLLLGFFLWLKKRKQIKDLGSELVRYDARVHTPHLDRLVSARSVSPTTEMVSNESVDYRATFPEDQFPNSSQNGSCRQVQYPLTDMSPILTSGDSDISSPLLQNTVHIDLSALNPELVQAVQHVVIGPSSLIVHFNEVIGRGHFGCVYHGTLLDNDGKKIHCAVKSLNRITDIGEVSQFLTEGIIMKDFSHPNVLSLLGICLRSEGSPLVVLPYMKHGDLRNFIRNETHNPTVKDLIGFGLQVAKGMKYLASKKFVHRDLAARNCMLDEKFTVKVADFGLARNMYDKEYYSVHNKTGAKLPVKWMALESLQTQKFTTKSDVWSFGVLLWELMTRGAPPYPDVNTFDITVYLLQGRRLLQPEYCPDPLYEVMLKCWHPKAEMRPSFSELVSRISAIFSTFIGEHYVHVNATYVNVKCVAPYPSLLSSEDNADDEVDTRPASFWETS
T4 sequence (P08581 whole entry D1228N, the tested form may be a part): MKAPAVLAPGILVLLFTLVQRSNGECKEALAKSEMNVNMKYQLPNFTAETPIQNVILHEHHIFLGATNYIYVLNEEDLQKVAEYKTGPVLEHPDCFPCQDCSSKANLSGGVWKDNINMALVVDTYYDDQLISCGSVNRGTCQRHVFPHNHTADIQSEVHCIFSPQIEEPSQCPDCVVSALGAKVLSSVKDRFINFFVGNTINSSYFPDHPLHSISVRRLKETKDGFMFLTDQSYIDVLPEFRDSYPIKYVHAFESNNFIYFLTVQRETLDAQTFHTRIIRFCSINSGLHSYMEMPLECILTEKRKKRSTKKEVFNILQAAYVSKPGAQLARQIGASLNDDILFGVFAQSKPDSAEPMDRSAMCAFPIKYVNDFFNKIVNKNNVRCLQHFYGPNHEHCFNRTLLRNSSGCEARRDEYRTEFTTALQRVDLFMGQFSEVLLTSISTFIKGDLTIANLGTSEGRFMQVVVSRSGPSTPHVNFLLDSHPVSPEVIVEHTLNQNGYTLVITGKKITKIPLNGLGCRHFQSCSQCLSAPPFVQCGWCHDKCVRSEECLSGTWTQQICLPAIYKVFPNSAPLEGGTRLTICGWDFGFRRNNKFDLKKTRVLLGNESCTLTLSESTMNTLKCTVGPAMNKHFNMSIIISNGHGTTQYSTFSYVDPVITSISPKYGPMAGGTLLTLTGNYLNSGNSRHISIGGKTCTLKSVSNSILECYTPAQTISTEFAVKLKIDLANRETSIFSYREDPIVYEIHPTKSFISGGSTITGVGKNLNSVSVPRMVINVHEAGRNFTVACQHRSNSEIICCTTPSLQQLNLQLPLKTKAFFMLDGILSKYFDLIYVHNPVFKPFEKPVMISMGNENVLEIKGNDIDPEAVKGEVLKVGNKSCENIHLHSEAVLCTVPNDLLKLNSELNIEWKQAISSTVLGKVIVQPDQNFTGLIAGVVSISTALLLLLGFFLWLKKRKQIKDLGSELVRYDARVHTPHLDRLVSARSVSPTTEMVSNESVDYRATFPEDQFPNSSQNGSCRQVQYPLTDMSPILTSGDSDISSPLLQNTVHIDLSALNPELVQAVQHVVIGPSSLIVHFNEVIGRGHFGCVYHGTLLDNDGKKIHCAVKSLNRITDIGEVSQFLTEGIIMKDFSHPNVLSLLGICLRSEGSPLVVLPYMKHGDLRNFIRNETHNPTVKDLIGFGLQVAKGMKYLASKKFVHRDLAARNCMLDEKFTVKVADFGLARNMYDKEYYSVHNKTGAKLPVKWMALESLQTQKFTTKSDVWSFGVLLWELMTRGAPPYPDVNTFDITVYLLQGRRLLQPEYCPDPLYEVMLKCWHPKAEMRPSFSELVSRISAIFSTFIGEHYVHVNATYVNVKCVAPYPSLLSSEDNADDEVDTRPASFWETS
T1 sequence (P08581 25-1390): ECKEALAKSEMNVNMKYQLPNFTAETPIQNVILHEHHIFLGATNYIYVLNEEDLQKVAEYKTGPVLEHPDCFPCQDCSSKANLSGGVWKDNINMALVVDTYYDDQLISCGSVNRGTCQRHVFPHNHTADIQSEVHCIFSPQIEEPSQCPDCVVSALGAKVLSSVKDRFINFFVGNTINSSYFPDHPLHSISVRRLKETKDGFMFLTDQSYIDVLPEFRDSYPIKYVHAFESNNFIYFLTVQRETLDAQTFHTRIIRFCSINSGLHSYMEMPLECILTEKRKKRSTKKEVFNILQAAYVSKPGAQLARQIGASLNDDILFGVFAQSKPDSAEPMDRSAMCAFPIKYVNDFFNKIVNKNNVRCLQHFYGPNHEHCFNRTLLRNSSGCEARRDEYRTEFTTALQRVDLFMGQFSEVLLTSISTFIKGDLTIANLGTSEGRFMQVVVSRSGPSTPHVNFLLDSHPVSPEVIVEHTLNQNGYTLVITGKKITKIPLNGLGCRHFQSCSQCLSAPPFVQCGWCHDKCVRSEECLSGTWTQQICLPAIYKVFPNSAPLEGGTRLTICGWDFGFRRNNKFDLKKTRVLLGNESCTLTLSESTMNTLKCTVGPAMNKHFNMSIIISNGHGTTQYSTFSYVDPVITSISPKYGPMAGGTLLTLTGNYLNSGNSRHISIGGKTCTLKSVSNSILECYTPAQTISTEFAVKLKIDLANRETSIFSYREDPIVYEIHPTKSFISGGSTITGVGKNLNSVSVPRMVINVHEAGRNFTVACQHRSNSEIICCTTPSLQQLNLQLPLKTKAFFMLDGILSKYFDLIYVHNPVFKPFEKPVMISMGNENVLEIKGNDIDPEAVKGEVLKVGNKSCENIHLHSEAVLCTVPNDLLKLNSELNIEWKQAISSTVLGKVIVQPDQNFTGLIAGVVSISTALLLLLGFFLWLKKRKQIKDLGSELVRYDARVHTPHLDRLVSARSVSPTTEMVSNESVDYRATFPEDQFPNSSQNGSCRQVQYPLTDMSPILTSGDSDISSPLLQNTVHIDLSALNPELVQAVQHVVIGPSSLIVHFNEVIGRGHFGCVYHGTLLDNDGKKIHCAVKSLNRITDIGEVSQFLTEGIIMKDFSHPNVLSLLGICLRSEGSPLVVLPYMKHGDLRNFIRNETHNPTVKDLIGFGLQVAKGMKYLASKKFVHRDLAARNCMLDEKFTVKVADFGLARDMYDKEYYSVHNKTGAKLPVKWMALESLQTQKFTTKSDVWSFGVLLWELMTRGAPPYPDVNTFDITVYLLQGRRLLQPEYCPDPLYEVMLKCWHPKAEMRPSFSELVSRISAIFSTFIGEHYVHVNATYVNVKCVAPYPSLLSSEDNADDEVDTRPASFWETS

As for `CNCCOc1cc2ncnc(Oc3c(F)cc(NC(=O)c4c(OC)ccnc4F)cc3F)c2cc1OC` [Example 7, N-(3,5-difluoro-4-((6-methoxy-7-(2-(methylamino)ethoxy)quinazolin-4-yl)oxy)phenyl)-2-fluoro-4-methoxypyridine-3-carboxamide], the IC50 at MET and on MET D1228N was no more than 100 nM in each case. In addition, the figures for the EC50 (at Ba/F3-TPR-MET cells; in assay [1]) were 1000 to 10000 nM and 100 to 1000 nM, respectively.

`COc1cc2nccc(Oc3c(F)cc(NC(=O)c4cnccc4OC)cc3F)c2cn1` [Example 36, N-{3,5-difluoro-4-[(7-methoxy-1,6-naphthyridin-4-yl)oxy]phenyl}-4-methoxypyridine-3-carboxamide]: the IC50 at MET and on MET D1228N was no more than 100 nM each time. In addition, the EC50 (on Ba/F3-TPR-MET cells; in assay [1]) was 100 to 1000 nM throughout.

On to `COc1ccc2c(Oc3c(F)cc(NC(=O)c4cnccc4OC4CC4)cc3F)ccnc2c1` [Example 90, 4-cyclopropoxy-N-{3,5-difluoro-4-[(7-methoxyquinolin-4-yl)oxy]phenyl}pyridine-3-carboxamide], for which the 50% inhibitory concentration (IC50) at MET and at MET D1228N was no more than 100 nM in each case. The EC50 is 100 to 1000 nM on Ba/F3-TPR-MET cells and no more than 100 nM in assay [1].

On to `COc1cc2c(Oc3cc(F)c(NC(=O)c4cnccc4OC)cc3F)ccnc2cc1OCCCN1CCOCC1` [Example 27, N-[2,5-difluoro-4-({6-methoxy-7-[3-(morpholin-4-yl)propoxy]quinolin-4-yl}oxy)phenyl]-4-methoxypyridine-3-carboxamide], for which the IC50 on MET and on MET D1228N was no more than 100 nM throughout. Moreover, the EC50 (at Ba/F3-TPR-MET cells; in assay [1]) was 100 to 1000 nM in each case.

As for `COc1cc2c(Oc3c(F)cc(NC(=O)c4c(OC5CC5)ccnc4F)cc3F)ccnc2cc1OCCO` [Example 118], the IC50 at MET and on MET D1228N was no more than 100 nM throughout. Moreover, the concentration for a half-maximal effect (EC50) (at Ba/F3-TPR-MET cells; in assay [1]) was no more than 100 nM in each case.

Turning to `CCOc1cc(N)ncc1C(=O)Nc1cc(F)c(Oc2ccnc3cc(OCCCN4CCOCC4)c(OC)cc23)cc1F` [Example 32, 6-amino-N-[2,5-difluoro-4-({6-methoxy-7-[3-(morpholin-4-yl)propoxy]quinolin-4-yl}oxy)phenyl]-4-ethoxypyridine-3-carboxamide], the half-inhibitory concentration (IC50) at MET and on MET D1228N was no more than 100 nM throughout. In addition, the concentration for a half-maximal effect (EC50) (on Ba/F3-TPR-MET cells; in assay [1]) was 100 to 1000 nM in each case.

Consider `COc1ccncc1C(=O)Nc1cc(F)c(Oc2ccnc3cc(OCC(C)(C)O)ccc23)c(F)c1` [Example 40, N-(3,5-difluoro-4-{[7-(2-hydroxy-2-methylpropoxy)quinolin-4-yl]oxy}phenyl)-4-methoxypyridine-3-carboxamide], for which the IC50 at MET and at MET D1228N was no more than 100 nM in each case. Besides, the concentration for a half-maximal effect (EC50) (at Ba/F3-TPR-MET cells; in assay [1]) was 100 to 1000 nM each time.

As to `COCCOc1cc2nccc(Oc3c(F)cc(NC(=O)c4cnccc4OC)cc3F)c2cc1OCCOC` [Example 43, N-(4-((6,7-bis(2-methoxyethoxy)quinolin-4-yl)oxy)-3,5-difluorophenyl)-4-methoxypyridine-3-carboxamide], the IC50 on MET and at MET D1228N was no more than 100 nM each time. Further, the EC50 (on Ba/F3-TPR-MET cells; in assay [1]) was no more than 100 nM throughout.

For `CCOc1ccncc1C(=O)Nc1cc(F)c(Oc2ccnc3cc(OCCCNC)c(OC)cc23)c(F)c1` [Example 21, N-(3,5-difluoro-4-((6-methoxy-7-(3-(methylamino)propoxy)quinolin-4-yl)oxy)phenyl)-4-ethoxypyridine-3-carboxamide], the IC50 on MET and at MET D1228N was no more than 100 nM each time. The EC50 (at Ba/F3-TPR-MET cells; in assay [1]) was 100 to 1000 nM each time.

For `COc1cc2c(Oc3c(F)cc(NC(=O)c4c(OCC(F)F)ccnc4F)cc3F)ccnc2cc1OCCO` [Example 141, N-(3,5-difluoro-4-((7-(2-hydroxyethoxy)-6-methoxyquinolin-4-yl)oxy)phenyl)-4-(2,2-difluoroethoxy)-2-fluoropyridine-3-carboxamide], the IC50 on MET and on MET D1228N was no more than 100 nM each time. Moreover, the concentration for a half-maximal effect (EC50) (at Ba/F3-TPR-MET cells; in assay [1]) was no more than 100 nM in each case.

Regarding `COCCOc1ccc2c(Oc3c(F)cc(NC(=O)c4cnccc4OC4CC4)cc3F)ccnc2c1` [Example 105, 4-cyclopropoxy-N-(3,5-difluoro-4-{[7-(2-methoxyethoxy)quinolin-4-yl]oxy}phenyl)pyridine-3-carboxamide], the IC50 at MET and at MET D1228N was no more than 100 nM in each case. For the same compound, the figures for the concentration for a half-maximal effect (EC50) (on Ba/F3-TPR-MET cells; in assay [1]) were 100 to 1000 nM and no more than 100 nM, respectively.

As for `COc1cc2nccc(Oc3c(F)cc(NC(=O)c4cnccc4OC)cc3F)c2cc1OC[C@H](C)O` [Example 123, (S)-N-(3,5-difluoro-4-{[6-(2-hydroxypropoxy)-7-methoxyquinolin-4-yl]oxy}phenyl)-4-methoxypyridine-3-carboxamide], the IC50 on MET and on MET D1228N was no more than 100 nM in each case. For the same compound, the 50% effective concentration (EC50) (on Ba/F3-TPR-MET cells; in assay [1]) was no more than 100 nM each time.

For `COc1cc2nccc(Oc3c(F)cc(NC(=O)c4cnccc4OC4CC4)cc3F)c2cc1OCCO` [Example 107, 4-cyclopropoxy-N-(3,5-difluoro-4-((6-(2-hydroxyethoxy)-7-methoxyquinolin-4-yl)oxy)phenyl)pyridine-3-carboxamide], the concentration for half-maximal inhibition (IC50) on MET and on MET D1228N was no more than 100 nM in each case. Moreover, the EC50 (on Ba/F3-TPR-MET cells; in assay [1]) was no more than 100 nM in each case.

Take `COc1cc2nccc(Oc3c(F)cc(NC(=O)c4cnccc4OC)cc3F)c2cc1OC[C@@H](C)O` [Example 124, (R)-N-(3,5-difluoro-4-{[6-(2-hydroxypropoxy)-7-methoxyquinolin-4-yl]oxy}phenyl)-4-methoxypyridine-3-carboxamide]: the IC50 at MET and on MET D1228N was no more than 100 nM throughout. The EC50 (on Ba/F3-TPR-MET cells; in assay [1]) was no more than 100 nM each time.

On to `CNCCOc1cc2nccc(Oc3c(F)cc(NC(=O)c4cnc(F)cc4OC4CC4)cc3F)c2cc1OC` [Example 110, 4-cyclopropoxy-N-[3,5-difluoro-4-({6-methoxy-7-[2-(methylamino)ethoxy]quinolin-4-yl}oxy)phenyl]-6-fluoropyridine-3-carboxamide], for which the IC50 on MET and on MET D1228N was no more than 100 nM in each case. For the same compound, the concentration for a half-maximal effect (EC50) (at Ba/F3-TPR-MET cells; in assay [1]) was no more than 100 nM throughout.

Consider `CNCCOc1ccc2c(Oc3c(F)cc(NC(=O)c4ncccc4OC4CC4)cc3F)ccnc2c1` [Example 80, 3-cyclopropoxy-N-[3,5-difluoro-4-({7-[2-(methylamino)ethoxy]quinolin-4-yl}oxy)phenyl]pyridine-2-carboxamide], for which the IC50 at MET and on MET D1228N was no more than 100 nM throughout. The concentration for a half-maximal effect (EC50) was 100 to 1000 nM on Ba/F3-TPR-MET cells and no more than 100 nM in assay [1].

With `COc1ccc2c(Oc3c(F)cc(NC(=O)c4cnccc4OC)cc3F)ccnc2c1` [Example 35, N-{3,5-difluoro-4-[(7-methoxyquinolin-4-yl)oxy]phenyl}-4-methoxypyridine-3-carboxamide], the 50% inhibitory concentration (IC50) on MET and at MET D1228N was no more than 100 nM each time. Moreover, the EC50 (on Ba/F3-TPR-MET cells; in assay [1]) was 100 to 1000 nM throughout.

Turning to `COc1cc2c(Oc3c(F)cc(NC(=O)c4nnccc4OC4CC4)cc3F)ccnc2cc1OCCO` [Example 148, 4-cyclopropoxy-N-(3,5-difluoro-4-((7-(2-hydroxyethoxy)-6-methoxyquinolin-4-yl)oxy)phenyl)pyridazine-3-carboxamide], the IC50 at MET and on MET D1228N was no more than 100 nM each time. The concentration for a half-maximal effect (EC50) (on Ba/F3-TPR-MET cells; in assay [1]) was no more than 100 nM in each case.

Take `COc1cc2c(Oc3c(F)cc(NC(=O)c4cnccc4OC4CC4)cc3F)ccnc2cc1OC[C@@H](C)O` [Example 99, 4-cyclopropoxy-N-[3,5-difluoro-4-({7-[(2R)-2-hydroxypropoxy]-6-methoxyquinolin-4-yl}oxy)phenyl]pyridine-3-carboxamide]: the IC50 at MET and on MET D1228N was no more than 100 nM throughout. The EC50 (at Ba/F3-TPR-MET cells; in assay [1]) was no more than 100 nM each time.

`CCCCOc1ccncc1C(=O)Nc1cc(F)c(Oc2ccnc3cc(OCCNC)c(OC)cc23)c(F)c1` [Example 69, 4-butoxy-N-[3,5-difluoro-4-({6-methoxy-7-[2-(methylamino)ethoxy]quinolin-4-yl}oxy)phenyl]pyridine-3-carboxamide]: the IC50 on MET and at MET D1228N was no more than 100 nM throughout. Further, the EC50 (at Ba/F3-TPR-MET cells; in assay [1]) was no more than 100 nM throughout.

For the compound `CNCCOc1cc2nccc(Oc3c(F)cc(NC(=O)c4cnccc4OC(F)F)cc3F)c2cc1OC` [Example 47, N-(3,5-difluoro-4-((6-methoxy-7-(2-(methylamino)ethoxy)quinolin-4-yl)oxy)phenyl)-4-(difluoromethoxy)pyridine-3-carboxamide], the concentration for half-maximal inhibition (IC50) on MET and at MET D1228N was no more than 100 nM in each case. Further, the EC50 (on Ba/F3-TPR-MET cells; in assay [1]) was 100 to 1000 nM in each case.
